Results: patent US4604239A, “Antibiotics” (Eli Lilly and Company, priority 1985, dated 1986)
“And” between values parts separate entries of the source, which are not always exact repeats. Identical values can stand only once. Like-named read-outs stand apart in the source and are kept apart here.

Experiments:
electrometric titration = assay type: physicochemical; settings: electrometric titration in 66% dimethylformamide in water
Source text: Antibiotic A41030 factor A is a white, crystalline solid.

Propionibacterium acnes = experiment: agar-dilution MIC; assay type: cell-based; settings: Propionibacterium acnes 79; Table 14
Source text: Antibiotic A41030 factors A, B and C have also been tested and found to be active against a genus of anaerobic bacteria identified as Propionibacterium acnes.

Escherichia coli = experiment: agar-dilution MIC; assay type: cell-based; settings: Escherichia coli TEM; Table 17
Source text: The results after reading the which follows.

Fusobacterium symbiosum = experiment: agar-dilution MIC; assay type: cell-based; settings: Fusobacterium symbiosum 1470; Table 14
Hemophilus influenzae = experiment: agar-dilution MIC; assay type: cell-based; settings: Table 17
Clostridium septicum = experiment: agar-dilution MIC; assay type: cell-based; settings: Clostridium septicum 1128; Table 14
[1] = system: Bacteroides melaninogenicus; experiment: agar-dilution MIC; assay type: cell-based; settings: Table 14
Clostridium perfringens = assay type: cell-based; settings: Clostridium perfringens 81; Table 14
Streptococcus pneumoniae = experiment: agar-dilution MIC; assay type: cell-based; settings: Streptococcus pneumoniae Park I; Table 17
Source text: (§1) The agar-dilution procedure described by the International Collaborative study (ICS) group was used to determine the minimum inhibitory concentrations (MIC's).

Bacteroides fragilis = experiment: agar-dilution MIC; assay type: cell-based; settings: Table 14
Source text: as §1

Streptococcus pyogenes = experiment: agar-dilution MIC; assay type: cell-based; settings: Streptococcus pyogenes C203; Table 17
Source text: as §1

[2] = system: Streptococcus sp. (Group D); experiment: agar-dilution MIC; assay type: cell-based; settings: Table 17
Source text: as §1

[3] = system: Staphylococcus epidermidis; experiment: agar-dilution MIC; assay type: cell-based; settings: Table 17
Source text: as §1

[4] = system: Bacteroides thetaiotaomicron; assay type: cell-based; settings: Bacteroides thetaiotaomicron 1438; Table 14
Source text: as §1

Bacteroides vulgatis = experiment: agar-dilution MIC; assay type: cell-based; settings: Bacteroides vulgatis 1211; Table 14
Eubacterium aerofaciens = experiment: agar-dilution MIC; assay type: cell-based; settings: Eubacterium aerofaciens 1235; Table 14
Bacteroides corrodens = experiment: agar-dilution MIC; assay type: cell-based; settings: Bacteroides corrodens 1874; Table 14
Staphylococcus aureus = experiment: agar-dilution MIC; assay type: cell-based
solubility = assay type: physicochemical
[5] = system: Peptostreptococcus anaerobius; experiment: agar-dilution MIC; assay type: cell-based; settings: Peptostreptococcus anaerobius 1428; Table 14
Clostridium difficile = assay type: cell-based
[6] = system: Peptostreptococcus intermedius; experiment: agar-dilution MIC; assay type: cell-based; settings: Peptostreptococcus intermedius 1264; Table 14
Peptococcus prevoti = experiment: agar-dilution MIC; assay type: cell-based; settings: Peptococcus prevoti 1281; Table 14
Staph. aureus = experiment: experimental bacterial infection in mice; assay type: in vivo; settings: two doses subcutaneously
Experimental: All of the A41030 factors tested have shown in vivo antimicrobial activity against experimental bacterial infections. When two doses of test compound were administered subcutaneously to mice in illustrative infections, the activity observed is measured as an ED50 value [effective dose in mg./kg. to protect fifty percent of the test animals: See Warren Wick, et al., J. Bacteriol. 81, 233-235 (1961)].

[7] = system: Fusobacterium necrophorum; experiment: agar-dilution MIC; assay type: cell-based; settings: Fusobacterium necrophorum 6054A; Table 14
[8] = system: Peptococcus asaccharolyticus; experiment: agar-dilution MIC; assay type: cell-based; settings: Peptococcus asaccharolyticus 1302; Table 14
Experimental: The MIC values were determined by the agar-dilution method, and are recorded in Table 15, which follows.

[9] = Bacteroides melaninogenicus 2736
[10] = Staphylococcus epidermidis EPI1
[11] = Staphylococcus aureus S13E, Table 17
[12] = Clostridium difficile 78, Table 16
[13] = Clostridium difficile 107B, Table 16
[14] = Clostridium difficile 111F, Table 16
[15] = Clostridium difficile 1153, Table 16
[16] = Clostridium difficile 2634, Table 16
[17] = Clostridium difficile 3424-5B, Table 16
[18] = Clostridium difficile 3816, Table 16
[19] = Clostridium difficile 6890, Table 16
[20] = Clostridium difficile 8484, Table 16
[21] = Clostridium difficile A-194, Table 16
[22] = Clostridium difficile A-195, Table 16
[23] = Clostridium difficile A-196, Table 16
[24] = Clostridium difficile A-279, Table 16
[25] = Clostridium difficile A-280, Table 16
[26] = Clostridium difficile A-281, Table 16
[27] = Clostridium difficile WAL-2112, Table 16
[28] = Clostridium difficile WAL-3657, Table 16
[29] = Clostridium difficile WAL-4268, Table 16

A41030 factor D
possibly additional pKa's (electrometric titration): > 10
MIC (Propionibacterium acnes): 0.25 µg/mL
MIC (Escherichia coli): 64 µg/mL
MIC (Fusobacterium symbiosum): 0.5 µg/mL
MIC (Hemophilus influenzae; Haemophilus influenzae 76): 8 µg/mL
MIC (Hemophilus influenzae; Haemophilus influenzae C.L.): 8 µg/mL
MIC (Clostridium septicum): 0.25 µg/mL
MIC ([1]; Bacteroides melaninogenicus 1856/28): > 64 µg/mL
MIC [1, 9]: 0.5 µg/mL
MIC (Clostridium perfringens): 0.5 µg/mL
MIC (Streptococcus pneumoniae): 0.5 µg/mL
MIC (Bacteroides fragilis; Bacteroides fragilis 111): 32 µg/mL
MIC (Bacteroides fragilis; Bacteroides fragilis 1877): 32 µg/mL
MIC (Bacteroides fragilis; Bacteroides fragilis 1936B): 32 µg/mL
MIC (Streptococcus pyogenes): 0.5 µg/mL
MIC ([2]; Streptococcus sp. Group D 9960): 1 µg/mL
MIC ([2]; Streptococcus sp. Group D X66): 1 µg/mL
MIC [3, 10]: 0.25 µg/mL
MIC ([3]; Staphylococcus epidermidis EPI2): 1 µg/mL
MIC [4]: 32 µg/mL
MIC (Bacteroides vulgatis): 32 µg/mL
MIC (Eubacterium aerofaciens): 0.5 µg/mL
MIC (Bacteroides corrodens): 32 µg/mL
MIC (Staphylococcus aureus; [11]): 0.25 µg/mL
solubility (solvents) (solubility): soluble in the same solvents as factor A
MIC [5]: 0.5 µg/mL
MIC (Clostridium difficile; [12]): ≤ 0.25 µg/mL
MIC (Clostridium difficile; [13]): ≤ 0.25 µg/mL
MIC (Clostridium difficile; [14]): ≤ 0.25 µg/mL
MIC (Clostridium difficile; [15]): 1.0 µg/mL
MIC (Clostridium difficile; [16]): 0.5 µg/mL
MIC (Clostridium difficile; [17]): 0.5 µg/mL
MIC (Clostridium difficile; [18]): 0.5 µg/mL
MIC (Clostridium difficile; [19]): 0.5 µg/mL
MIC (Clostridium difficile; [20]): ≤ 0.25 µg/mL
MIC (Clostridium difficile; [21]): ≤ 0.25 µg/mL
MIC (Clostridium difficile; [22]): ≤ 0.25 µg/mL
MIC (Clostridium difficile; [23]): 0.5 µg/mL
MIC (Clostridium difficile; [24]): ≤ 0.25 µg/mL
MIC (Clostridium difficile; [25]): ≤ 0.25 µg/mL
MIC (Clostridium difficile; [26]): 0.5 µg/mL
MIC (Clostridium difficile; [27]): ≤ 0.25 µg/mL
MIC (Clostridium difficile; [28]): ≤ 0.25 µg/mL
MIC (Clostridium difficile; [29]): ≤ 0.25 µg/mL
MIC [6]: 1.0 µg/mL
MIC (Peptococcus prevoti): 0.25 µg/mL

A41030 factor E
possibly additional pKa's (electrometric titration): > 10
MIC (Propionibacterium acnes): 0.5 µg/mL
MIC (Fusobacterium symbiosum): 1.0 µg/mL
MIC (Hemophilus influenzae; Haemophilus influenzae 76): 8 µg/mL
MIC (Hemophilus influenzae; Haemophilus influenzae C.L.): 8 µg/mL
ED50 (Staph. aureus): < 0.31 mg/kg
MIC (Clostridium septicum): 0.5 µg/mL
MIC [1, 9]: 32 µg/mL
MIC (Clostridium perfringens): 1.0 µg/mL
MIC (Streptococcus pneumoniae): 0.25 µg/mL
MIC (Bacteroides fragilis; Bacteroides fragilis 111): 64 µg/mL
MIC (Bacteroides fragilis; Bacteroides fragilis 1877): 32 µg/mL
MIC (Bacteroides fragilis; Bacteroides fragilis 1936B): 64 µg/mL
MIC (Streptococcus pyogenes): 0.25 µg/mL
MIC ([2]; Streptococcus sp. Group D 9960): 1 µg/mL
MIC ([2]; Streptococcus sp. Group D X66): 1 µg/mL
MIC [3, 10]: 0.25 µg/mL
MIC [4]: 64 µg/mL
MIC (Bacteroides vulgatis): 32 µg/mL
MIC (Eubacterium aerofaciens): 0.5 µg/mL
MIC (Bacteroides corrodens): 64 µg/mL
MIC (Staphylococcus aureus; [11]): 0.25 µg/mL
MIC (Staphylococcus aureus; in µg/mL): 0.125 and 0.25
solubility (solvents) (solubility): soluble in the same solvents as factor A
MIC [7]: 0.5 µg/mL
MIC [5]: 32 µg/mL
MIC (Clostridium difficile; [12]): 0.5 µg/mL
MIC (Clostridium difficile; [13]): 0.5 µg/mL
MIC (Clostridium difficile; [14]): 0.5 µg/mL
MIC (Clostridium difficile; [15]): 1.0 µg/mL
MIC (Clostridium difficile; [16]): 1.0 µg/mL
MIC (Clostridium difficile; Clostridium difficile 2994, Table 14): 0.5 µg/mL
MIC (Clostridium difficile; [17]): 0.5 µg/mL
MIC (Clostridium difficile; [18]): 0.5 µg/mL
MIC (Clostridium difficile; Clostridium difficile 3950D, Table 16): 0.5 µg/mL
MIC (Clostridium difficile; [19]): 0.5 µg/mL
MIC (Clostridium difficile; [20]): 0.5 µg/mL
MIC (Clostridium difficile; [21]): 0.5 µg/mL
MIC (Clostridium difficile; [22]): 0.5 µg/mL
MIC (Clostridium difficile; [23]): 1.0 µg/mL
MIC (Clostridium difficile; [24]): 0.5 µg/mL
MIC (Clostridium difficile; [25]): 0.5 µg/mL
MIC (Clostridium difficile; [26]): 1.0 µg/mL
MIC (Clostridium difficile; [27]): 0.5 µg/mL
MIC (Clostridium difficile; [28]): 0.5 µg/mL
MIC (Clostridium difficile; [29]): 0.5 µg/mL
MIC [6]: 32 µg/mL
MIC [8]: ≤ 0.25 µg/mL
MIC (Peptococcus prevoti): 32 µg/mL
